The subject of assay [1] is human colorectal cancer cell line (HCT116). Briefly: MTT assay, HCT116 cell line. The assay is classed as cell-based. The following applies: for IC50: Homo sapiens, HCT-116, read-out: Anticancer activity (IC50) HCT116; for anticancer action against HCT116 (in words): SAR discussion.
Assay [2] has as its system human lung adenocarcinoma cell line (A549). Briefly: MTT assay, A549 cell line. The following applies: SAR discussion. The assay is classed as cell-based. For orientation: Tetrazolium dyes change colour on reduction, which living cells bring about.

Broadly, the IC50 is the concentration at which inhibition is half-maximal.

SMILES strings stand for the structures.

For `COc1cccc(NC(=O)Cn2cc(COc3ncnc4[nH]cnc34)nn2)c1` [5 g, 2-(4-(((9 H-purin-6-yl)oxy)methyl)-1 H-1,2,3-triazol-1-yl)-N-(3-methoxyphenyl)acetamide], in assay [1], the IC50 was greater than 100 µM and the “anticancer action against HCT116 (in words)” value (from here on “anticancer action”) is “did not exhibit anticancer action”.
Taken in the same sequence, the figures for `O=C(Cn1cc(COc2ncnc3[nH]cnc23)nn1)Nc1ccc(O)cc1` [5 h, 2-(4-(((9 H-purin-6-yl)oxy)methyl)-1 H-1,2,3-triazol-1-yl)-N-(4-hydroxyphenyl)acetamide] were 12.3 ± 0.52 µM and “moderately inhibited”.
In the case of `Cc1cncc(NC(=O)Cn2cc(COc3ncnc4[nH]cnc34)nn2)c1` [5a, 2-(4-(((9 H-purin-6-yl)oxy)methyl)-1 H-1,2,3-triazol-1-yl)-N-(5-methylpyridin-3-yl)acetamide], the IC50 in assay [1] was found to be 6.23 ± 0.23 µM.
Same read-out and setting: under `O=Cc1cccc(NC(=O)Cn2cc(COc3ncnc4[nH]cnc34)nn2)c1` [5b, 2-(4-(((9 H-purin-6-yl)oxy)methyl)-1 H-1,2,3-triazol-1-yl)-N-(3-formylphenyl)acetamide] stands 15.6 ± 0.45 µM.
Take `Cc1cccc(NC(=O)Cn2cc(COc3ncnc4[nH]cnc34)nn2)c1` [5c, 2-(4-(((9 H-purin-6-yl)oxy)methyl)-1 H-1,2,3-triazol-1-yl)-N-(m-tolyl)acetamide]: in assay [2], the “inhibitory potential against A549 (in words)” value (shortened to “inhibitory potential”) is “significantly reduced”.
As to `Cc1ccc(NC(=O)Cn2cc(COc3ncnc4[nH]cnc34)nn2)c(C)c1` [5d, 2-(4-(((9 H-purin-6-yl)oxy)methyl)-1 H-1,2,3-triazol-1-yl)-N-(2,4-dimethylphenyl)acetamide], the “anticancer action” value in assay [1] is on record as “did not exhibit anticancer action”.
Turning to `O=C(Cn1cc(COc2ncnc3[nH]cnc23)nn1)Nc1ccc(F)c(Cl)c1` [5e, 2-(4-(((9 H-purin-6-yl)oxy)methyl)-1 H-1,2,3-triazol-1-yl)-N-(3-chloro-4-fluorophenyl)acetamide], the IC50 in assay [1] was 6.11 ± 0.29 µM.
Regarding `O=C(Cn1cc(COc2ncnc3[nH]cnc23)nn1)Nc1ccc([N+](=O)[O-])cc1` [5f, 2-(4-(((9 H-purin-6-yl)oxy)methyl)-1 H-1,2,3-triazol-1-yl)-N-(4-nitrophenyl)acetamide], the “inhibitory potential” value in assay [2] was “significantly reduced”. Further, the IC50 in assay [1] turned out to be 13.9 ± 0.19 µM.
Take `O=C(Cn1cc(COc2ncnc3[nH]cnc23)nn1)NCc1ccc(O)cc1` [5i, 2-(4-(((9 H-purin-6-yl)oxy)methyl)-1 H-1,2,3-triazol-1-yl)-N-(4-hydroxybenzyl)acetamide]: the “inhibitory potential” value in assay [2] is listed as “significantly reduced”. For the same molecule, in assay [1], the IC50 came out at 7.88 ± 0.6 µM and the “anticancer action” value was “moderately inhibited”.
Turning to `O=C(Cn1cc(COc2ncnc3[nH]cnc23)nn1)NCc1ccc(Cl)cc1` [5j, 2-(4-(((9 H-purin-6-yl)oxy)methyl)-1 H-1,2,3-triazol-1-yl)-N-(4-chlorobenzyl)acetamide], in assay [1], the IC50 amounted to 22.6 ± 0.38 µM.
Take `COc1ccc(CNC(=O)Cn2cc(COc3ncnc4[nH]cnc34)nn2)cc1` [5k, 2-(4-(((9 H-purin-6-yl)oxy)methyl)-1 H-1,2,3-triazol-1-yl)-N-(4-methoxybenzyl)acetamide]: the “anticancer action” value in assay [1] was “did not exhibit anticancer action”.
As for `COc1cccc2c1C(=O)c1c(O)c3c(c(O)c1C2=O)C[C@@](O)(C(=O)CO)C[C@@H]3O[C@H]1C[C@H](N)[C@H](O)[C@H](C)O1` [DXN, doxorubicin, reference compound], the IC50 in assay [1] was 7.27 ± 0.39 µM.
